Experiment [1] relates to MOLP-8 human multiple myeloma cell line. The experiment in a line: Caspase-Glo 3/7 apoptosis induction assay in MOLP-8 cells. The class given is cell-based. Conditions: Homo sapiens, MOLP-8, 2 h, caspase-3/7 activity, 2 hours at 37° C.; averaged over all runs on all batches; read-out: MOLP8 AC50. The method in brief: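 MOLP-8 cells were treated for 2 h at 37° C with 10-dose, 1/3 serial dilutions ([…], 0.5% DMSO final, duplicates). Caspase-3/7 activity was read by Caspase-Glo luminescence 30 min after reagent addition. % effect was normalised between low (1% DMSO) and high (positive control) controls.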

For experiment [2], the target named is Myeloid Cell Leukemia 1(Mcl-1) (Homo sapiens, UniProt Q07820). The experiment in a line: Terbium labeled Mcl-1 HTRF binding assay with Cy5-labeled BIM BH3 peptide. Conditions: displacement of Cy5 Bim BH3 peptide; Ki=IC50/(1+[L]/Kd), [L]=8 nM, Kd=10 nM; 60 minutes at room temperature; read-out: Tb-MCL1 Ki. The method, boiled down: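 TR-FRET displacement of Cy5-BIM BH3 peptide (8 nM; Kd 10 nM) from 25 pM Tb-labelled Mcl-1 in 10 mM Tris-HCl pH 7.5, 150 mM NaCl, 2 mM DTT, 0.0025% Tween-20, 0.1 mg/mL BSA, 1% DMSO. 60 min at room temperature; 665/620 nm ratio normalized to controls, IC50 from 11-point curve.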

For four molecules, AC50 and Ki results are on record in patent US20230219906A1, “MACROCYCLIC-2-AMINO-3-FLUORO-BUT-3-ENAMIDES AS INHIBITORS OF MCL-1” (Janssen Pharmaceutica NV, priority 2020, published 2023).

Chain of Myeloid Cell Leukemia 1(Mcl-1) (Q07820 whole entry): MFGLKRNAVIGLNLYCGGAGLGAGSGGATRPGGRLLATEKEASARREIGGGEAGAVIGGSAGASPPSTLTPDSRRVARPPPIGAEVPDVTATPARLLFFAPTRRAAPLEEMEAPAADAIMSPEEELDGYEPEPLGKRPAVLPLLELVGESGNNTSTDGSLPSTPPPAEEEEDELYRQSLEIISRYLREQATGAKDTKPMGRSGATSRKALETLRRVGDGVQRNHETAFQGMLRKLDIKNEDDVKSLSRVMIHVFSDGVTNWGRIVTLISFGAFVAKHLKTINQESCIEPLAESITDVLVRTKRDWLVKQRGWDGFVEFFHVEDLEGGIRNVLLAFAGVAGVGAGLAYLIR

Broadly, the AC50 is the concentration at which the activity in the assay is half-maximal. The Ki is the equilibrium dissociation constant of an inhibitor or competing ligand from its target. Take `COCCN(CCOC)C(=O)[C@H]1/C(F)=C/C[C@H](C)[C@@H](C)S(=O)(=O)NC(=O)c2ccc3c(c2F)N(C[C@@H]2CCCN21)C[C@@]1(CCCc2cc(Cl)ccc21)CO3` [Compound 17]: the AC50 in experiment [1] worked out at 234 nM. The Ki in experiment [2] amounted to 0.032 nM.
Taken in the same sequence, the figures for `COCCCN(CCCOC)C(=O)[C@H]1/C(F)=C/C[C@H](C)[C@@H](C)S(=O)(=O)NC(=O)c2ccc3c(c2)N(C[C@@H]2CCCN21)C[C@@]1(CCCc2cc(Cl)ccc21)CO3` [Compound 37] were 49.5 nM and 0.061 nM.
Taken in the same sequence, the figures for `C[C@@H]1[C@@H](C)C/C=C(\F)[C@H](C(=O)N(C)CCn2cccn2)N2CCC[C@H]2CN2C[C@@]3(CCCc4cc(Cl)ccc43)COc3ccc(cc32)C(=O)NS1(=O)=O` [Compound 61] were 166 nM and 0.074 nM.
Taken in the same sequence, the figures for `C[C@@H]1[C@@H](C)C/C=C(\F)[C@H](C(=O)N2CCCC3(CC3)C2)N2CCC[C@H]2CN2C[C@@]3(CCCc4cc(Cl)ccc43)COc3ccc(cc32)C(=O)NS1(=O)=O` (single isomer, unassigned) [Compound 16] were 446 nM and 0.446 nM.
